# Test system: C. elegans worms
# Test: Nile Red lipid staining of worm intestine after 48 hours on experimental diet, non-obesogenic setting
# Type: in vivo
# Settings: for Normalized Nile Red fluorescence, Mean / Normalized Nile Red fluorescence, Median: divided by mean fluorescence of standard diet; for Mean Diff. of fluorescence, Standard E. coli Diet vs. Orlistat / Mean Diff. of fluorescence, Orlistat vs. UF1 100 mg/ml / Mean Diff. of fluorescence, Orlistat vs. UF1 OD7 / Mean Diff. of fluorescence, Standard E. coli Diet vs. UF1 100 mg/ml / Mean Diff. of fluorescence, Standard E. coli Diet vs. UF1 OD7: Holm-Šidák's multiple comparisons test; for Nile Red fluorescence intensity, Mean / Nile Red fluorescence intensity, Median: 48 hours, non-obesogenic; for reduced fat levels compared to the Orlistat control / reduced fat levels compared to the standard E. coli OP50 control diet: reduction
# Experimental: In this example the weight loss potential of the UF1 probiotic strain was studied. The UF1 probiotic strain was tested in a non-obesogenic setting by measuring the amount of internal fat in UF1-treated worms compared to no treatment controls. Orlistat treatment was also included as a positive control for fat reduction.
# Methodology—Worms were raised to the L4 larval stage using standard plate culture methods. The L4 larvae were then loaded into a microfluidic chip and fed a diet of live E. coli OP50 (20 mg/ml) in liquid nematode growth media (NGM). After 24 hours on the chip, the media for each experimental cohort was switched to the experimental diet. The animals were maintained on each experimental diet for 48 hours before being fixed and stained with Nile Red—a fluorescent dye that binds lipids. A fluorescent microscopy system was then used to image the brightness of the lipid staining in the intestine of the worms, which correlates to the levels of fat in each animal.
# Nile Red gives off fluorescence when illuminated with green light. The brightness of the intestinal saining in each worm per trial was quantified. This allows the measurement of the natural variability in fat levels across individuals. ANOVA was then used to determine if the distributions across treatment conditions were statistically different to one another.
# All datasets were combined by normalizing the data in each trial by dividing it by the mean fluorescence value of the standard diet. In the combined data, the UF1 diets reduced fat levels compared to the standard E. coli OP50 control diet by approximately 47% and 46%, respectively. The subjects also had reduced fat levels compared to the Orlistat control by approximately 38% and 37%, respectively.
# [1] = All trials combined, Orlistat 6 μg/ml
# [2] = Trial 1, live OP50 20 mg/ml + Orlistat 6 μg/ml
# [3] = Trial 2, live OP50 20 mg/ml + Orlistat 6 μg/ml
# [4] = Trial 3, live OP50 20 mg/ml + Orlistat 6 μg/ml
# [5] = All trials combined, UF1 100 mg/ml diet
# [6] = All trials combined, UF1 OD7 diet
# [7] = All trials combined, normalized, UF1 100 mg/ml diet
# [8] = All trials combined, normalized, UF1 OD7 diet
# [9] = All trials combined, Holm-Šídák's multiple comparisons test
# [10] = Combined data, UF1 100 mg/ml diet
# [11] = Trial 1, UF1 100 mg/ml diet, mean fluorescence
# [12] = Trial 1, UF1 OD7 diet, mean fluorescence
# [13] = Trial 2, UF1 100 mg/ml diet, mean fluorescence
# [14] = Trial 2, UF1 OD7 diet, mean fluorescence
# [15] = Trial 3, UF1 100 mg/ml diet, mean fluorescence
molecule,measurement,setting,value
"CCCCCCCCCCC[C@@H](C[C@@H]1OC(=O)[C@H]1CCCCCC)OC(=O)[C@H](CC(C)C)NC=O [Orlistat, reference compound]","Normalized Nile Red fluorescence, Mean",[1],0.8579
same,"Normalized Nile Red fluorescence, Median",[1],0.8801
same,Percentage Change from Standard Diet,"All trials combined, normalized, Orlistat 6 μg/ml",−14.21%
same,"Mean Diff. of normalized fluorescence, Standard E. coli Diet vs. Orlistat","All trials combined, Holm-Šídák's multiple comparisons test, Orlistat 6 μg/ml",0.1421
same,"Mean Diff. of fluorescence, Standard E. coli Diet vs. Orlistat","Trial 1, Orlistat 6 μg/ml",628190
same,"Nile Red fluorescence intensity, Mean",[2],10354899
same,"Nile Red fluorescence intensity, Median",[2],10198510
same,Percentage Change from Standard Diet,"Trial 1, live OP50 20 mg/ml + Orlistat 6 μg/ml, mean fluorescence",−5.72%
same,"Mean Diff. of fluorescence, Standard E. coli Diet vs. Orlistat","Trial 2, Orlistat 6 μg/ml",1621884
same,"Nile Red fluorescence intensity, Mean",[3],9011934
same,"Nile Red fluorescence intensity, Median",[3],8938493
same,Percentage Change from Standard Diet,"Trial 2, live OP50 20 mg/ml + Orlistat 6 μg/ml, mean fluorescence",−15.25%
same,"Mean Diff. of fluorescence, Standard E. coli Diet vs. Orlistat","Trial 3, Orlistat 6 μg/ml",9789069
same,"Nile Red fluorescence intensity, Mean",[4],28212711
same,"Nile Red fluorescence intensity, Median",[4],23127648
same,Percentage Change from Standard Diet,"Trial 3, live OP50 20 mg/ml + Orlistat 6 μg/ml, mean fluorescence",−25.76%
Propionibacterium freudenreichii UF1,"Normalized Nile Red fluorescence, Mean",[5],0.5321
same,"Normalized Nile Red fluorescence, Median",[5],0.5247
same,"Normalized Nile Red fluorescence, Mean",[6],0.5417
same,"Normalized Nile Red fluorescence, Median",[6],0.5207
same,Percentage Change from Orlistat,[7],−37.98%
same,Percentage Change from Standard Diet,[7],−46.79%
same,Percentage Change from Orlistat,[8],−36.86%
same,Percentage Change from Standard Diet,[8],−45.83%
same,"Mean Diff. of normalized fluorescence, Orlistat vs. UF1 100 mg/ml",[9],0.3259
same,"Mean Diff. of normalized fluorescence, Orlistat vs. UF1 OD7",[9],0.3162
same,"Mean Diff. of normalized fluorescence, Standard E. coli Diet vs. UF1 100 mg/ml",[9],0.4679
same,"Mean Diff. of normalized fluorescence, Standard E. coli Diet vs. UF1 OD7",[9],0.4583
same,reduced fat levels compared to the Orlistat control,[10],approximately 38%
same,reduced fat levels compared to the standard E. coli OP50 control diet,[10],approximately 47%
same,reduced fat levels compared to the Orlistat control,"Combined data, UF1 OD7 diet",~37%
same,reduced fat levels compared to the standard E. coli OP50 control diet,"Combined data, UF1 OD7 diet",~46%
same,"Mean Diff. of fluorescence, Orlistat vs. UF1 100 mg/ml",Trial 1,5160787
same,"Mean Diff. of fluorescence, Orlistat vs. UF1 OD7",Trial 1,5293675
same,"Mean Diff. of fluorescence, Standard E. coli Diet vs. UF1 100 mg/ml",Trial 1,5788977
same,"Mean Diff. of fluorescence, Standard E. coli Diet vs. UF1 OD7",Trial 1,5921865
same,less fat than the Orlistat control,"Trial 1, UF1 100 mg/ml diet",approximately 50%
same,"Nile Red fluorescence intensity, Mean","Trial 1, UF1 100 mg/ml diet",5194112
same,"Nile Red fluorescence intensity, Median","Trial 1, UF1 100 mg/ml diet",5124444
same,Percentage Change from Orlistat,[11],−49.84%
same,Percentage Change from Standard Diet,[11],−52.71%
same,reduced fat levels compared to the standard E. coli OP50 control diet,"Trial 1, UF1 100 mg/ml diet",approximately 53%
same,less fat than the Orlistat control,"Trial 1, UF1 OD7 diet",~51%
same,"Nile Red fluorescence intensity, Mean","Trial 1, UF1 OD7 diet",5061224
same,"Nile Red fluorescence intensity, Median","Trial 1, UF1 OD7 diet",5147920
same,Percentage Change from Orlistat,[12],−51.12%
same,Percentage Change from Standard Diet,[12],−53.92%
same,reduced fat levels compared to the standard E. coli OP50 control diet,"Trial 1, UF1 OD7 diet",~54%
same,"Mean Diff. of fluorescence, Orlistat vs. UF1 100 mg/ml",Trial 2,1399524
same,"Mean Diff. of fluorescence, Orlistat vs. UF1 OD7",Trial 2,2435073
same,"Mean Diff. of fluorescence, Standard E. coli Diet vs. UF1 100 mg/ml",Trial 2,3021408
same,"Mean Diff. of fluorescence, Standard E. coli Diet vs. UF1 OD7",Trial 2,4056957
same,less fat than the Orlistat control,"Trial 2, UF1 100 mg/ml diet",approximately 16%
same,"Nile Red fluorescence intensity, Mean","Trial 2, UF1 100 mg/ml diet",7612410
same,"Nile Red fluorescence intensity, Median","Trial 2, UF1 100 mg/ml diet",7441676
same,Percentage Change from Orlistat,[13],−15.53%
same,Percentage Change from Standard Diet,[13],−28.41%
same,reduced fat levels compared to the standard E. coli OP50 control diet,"Trial 2, UF1 100 mg/ml diet",approximately 28%
same,less fat than the Orlistat control,"Trial 2, UF1 OD7 diet",~27%
same,"Nile Red fluorescence intensity, Mean","Trial 2, UF1 OD7 diet",6576861
same,"Nile Red fluorescence intensity, Median","Trial 2, UF1 OD7 diet",6691779
same,Percentage Change from Orlistat,[14],−27.02%
same,Percentage Change from Standard Diet,[14],−38.15%
same,reduced fat levels compared to the standard E. coli OP50 control diet,"Trial 2, UF1 OD7 diet",~38%
same,"Mean Diff. of fluorescence, Orlistat vs. UF1 100 mg/ml",Trial 3,9045435
same,"Mean Diff. of fluorescence, Standard E. coli Diet vs. UF1 100 mg/ml",Trial 3,18834504
same,less fat than the Orlistat control,"Trial 3, UF1 100 mg/ml diet",approximately 32%
same,"Nile Red fluorescence intensity, Mean","Trial 3, UF1 100 mg/ml diet",19167276
same,"Nile Red fluorescence intensity, Median","Trial 3, UF1 100 mg/ml diet",20425415
same,Percentage Change from Orlistat,[15],−32.06%
same,Percentage Change from Standard Diet,[15],−49.56%
same,reduced fat levels compared to the standard E. coli OP50 control diet,"Trial 3, UF1 diets (UF1 100 mg/ml)",approximately 50%
same,reduction in fat level compared with Orlistat,"UF1 diets, conclusion in words",stronger reduction in fat level than the anti-obesity drug Orlistat
same,levels of fat in the intestines of C. elegans worms,"non-obesogenic conditions, conclusion in words",reduced the levels of fat
